# Measurements as given in patent US9527850B2, “Benzyl piperidine compounds as lysophosphatidic acid (LPA) receptor antagonist” (Merck Patent GmbH, priority 2011, dated 2016).
# Target: T1, LPA2 receptor (LPA2R) (Homo sapiens, UniProt Q9HBW0)
# T1 construct: expressed in transfected cells; host or cells: U2OS
# Assay: LPA2R-Calciumflux assay (intracellular calcium mobilisation, FLIPR)
# Assay type: cell-based
# Conditions: U2OS cells recombinant expressing LPA2R; inhibition of LPA-induced Ca-flux; 10 concentrations 30 uM to 1 nM, 1% DMSO
# T1 sequence (Q9HBW0 whole entry): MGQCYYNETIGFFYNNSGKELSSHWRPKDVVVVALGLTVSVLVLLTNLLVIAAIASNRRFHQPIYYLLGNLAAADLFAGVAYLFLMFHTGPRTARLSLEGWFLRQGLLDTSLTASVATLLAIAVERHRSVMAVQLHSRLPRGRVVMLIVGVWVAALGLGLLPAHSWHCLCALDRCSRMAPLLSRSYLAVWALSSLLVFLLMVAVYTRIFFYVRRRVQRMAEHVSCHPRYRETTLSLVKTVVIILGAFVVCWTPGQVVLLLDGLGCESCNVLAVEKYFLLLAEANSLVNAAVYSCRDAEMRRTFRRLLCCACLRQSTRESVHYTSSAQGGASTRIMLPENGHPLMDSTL
row,Structure (SMILES),IC50
1,"Fc1ccc(CN2CCCC[C@H]2c2cc3cc(F)ccc3[nH]2)cc1 [compound 137, 5-Fluoro-2-[(S)-1-(4-fluoro-benzyl)-piperidin-2-yl]-1H-indole]",500 to 5000 nM
2,"Cc1ccc(CN2CCCC[C@@H]2c2cc3cc(F)ccc3[nH]2)cc1C [compound 138, 2-[(R)-1-(3,4-Dimethyl-benzyl)-piperidin-2-yl]-5-fluoro-1H-indole]",< 500 nM
3,"Cc1ccc(CN2CCCC[C@H]2c2cc3cc(F)ccc3[nH]2)cc1C [compound 139, 2-[(S)-1-(3,4-Dimethyl-benzyl)-piperidin-2-yl]-5-fluoro-1H-indole]",500 to 5000 nM
4,"Cc1ccc(CN2CCCC[C@@H]2c2nc3cc(Cl)cnc3[nH]2)cc1C [compound 140, 6-Chloro-2-[(R)-1-(3,4-dimethyl-benzyl)-piperidin-2-yl]-3H-imidazo[4,5-b]pyridine]",500 to 5000 nM
5,"Cc1ccc(CN2CCCC[C@H]2c2nc3cc(Cl)cnc3[nH]2)cc1C [compound 141, 6-Chloro-2-[(S)-1-(3,4-dimethyl-benzyl)-piperidin-2-yl]-3H-imidazo[4,5-b]pyridine]",500 to 5000 nM
6,"Cc1ccc(CN2CCCC[C@H]2c2nc3cc(F)ccc3[nH]2)cc1C [compound 142, 2-[(S)-1-(3,4-Dimethyl-benzyl)-piperidin-2-yl]-5-fluoro-1H-benzo-imidazole]",< 500 nM
7,"Cc1ccc(CN2CCCC[C@@H]2c2cc3ccccc3[nH]2)cc1 [compound 143, 2-[(R)-1-(4-Methyl-benzyl)-piperidin-2-yl)-1H-indole]",< 500 nM
8,"Fc1ccc(CN2CCCCC2c2cc3cccnc3[nH]2)cc1 (centres unmarked) [compound 144, 2-[1-(4-Fluoro-benzyl)-piperidin-2-yl]-1H-pyrrolo[2,3-b]pyridine]",500 to 5000 nM
